{
  "source": "paper PMC11601618",
  "about": "(bioRxiv, 2024)",
  "key": {"[1]": {"molecular_target": "T1, chicken BEST1 (bestrophin 1) (Gallus gallus, UniProt A0A8V0ZZU7)", "T1 sequence (A0A8V0ZZU7 1-405)": "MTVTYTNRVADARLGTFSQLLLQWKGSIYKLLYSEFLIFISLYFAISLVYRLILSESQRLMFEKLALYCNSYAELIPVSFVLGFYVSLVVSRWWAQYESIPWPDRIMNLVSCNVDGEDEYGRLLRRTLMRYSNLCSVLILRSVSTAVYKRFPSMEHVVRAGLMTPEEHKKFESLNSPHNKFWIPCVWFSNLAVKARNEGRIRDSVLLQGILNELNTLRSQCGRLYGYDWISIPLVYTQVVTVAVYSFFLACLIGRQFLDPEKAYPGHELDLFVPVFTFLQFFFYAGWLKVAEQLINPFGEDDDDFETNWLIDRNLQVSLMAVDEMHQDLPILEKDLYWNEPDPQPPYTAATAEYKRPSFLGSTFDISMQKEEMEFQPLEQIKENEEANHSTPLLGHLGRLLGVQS", "assay": "cryo-EM structure with […] GABA", "assay_type": "biochemical"}, "[2]": {"molecular_target": "the molecule itself", "assay": "cryo-EM structure"}},
  "data": [
    {"molecule": "NCCCC(=O)O", "note": "[GABA]", "values": [
      {"measurement": "EC50", "setting": "[1]", "value": "~2000", "unit": "µM"}
    ]},
    {"molecule": "human BEST1 (spanning amino acids 1-398) (domain or fragment, UniProt O76090 1-398, looked up) MTITYTSQVANARLGSFSRLLLCWRGSIYKLLYGEFLIFLLCYYIIRFIYRLALTEEQQLMFEKLTLYCDSYIQLIPISFVLGFYVTLVVTRWWNQYENLPWPDRLMSLVSGFVEGKDEQGRLLRRTLIRYANLGNVLILRSVSTAVYKRFPSAQHLVQAGFMTPAEHKQLEKLSLPHNMFWVPWVWFANLSMKAWLGGRIRDPILLQSLLNEMNTLRTQCGHLYAYDWISIPLVYTQVVTVAVYSFFLTCLVGRQFLNPAKAYPGHELDLVVPVFTFLQFFFYVGWLKVAEQLINPFGEDDDDFETNWIVDRNLQVSLLAVDEMHQDLPRMEPDMYWNKPEPQPPYTAASAQFRRASFMGSTFNISLNKEEMEFQPNQEDEEDAHAGIIGRFLGLQS", "values": [
      {"measurement": "stoichiometry N", "setting": "[2]", "value": 5}
    ]}
  ]
}
